Earlier results on one molecule are cited in US12636242B2, “Increased solubilization of diethylamino hydroxybenzoyl hexyl benzoate” (DSM IP ASSETS B.V., priority 2020, dated 2026).

Like-named read-outs stand apart in the source and are kept apart here.

[1] abbreviates: listed as Diethylamino hydroxybenzoyl hexyl benzoate.

Regarding `CCCCCCOC(=O)c1ccccc1C(=O)c1ccc(N(CC)CC)cc1O` [UV-filter of the formula (I), diethylamino hydroxybenzoyl hexyl benzoate], the “Solubility in esters and alcohols (ethyl hexyl-benzoate, ethanol)” value is on record as “very soluble”; the “Solubility in water and alkanes” value is reported as “insoluble”. Moreover, under setting [1], the “Solubility in esters and alcohols (ethyl hexyl-benzoate, ethanol)” value is recorded as “moderate solubility”; the “Solubility in water and alkanes” value was “very low”.
